What all share (type): cell-based
The test system of one assay is DLD-1 BRCA2KO cells. Nature of the assay: Cell viability assay (AlamarBlue), 7 days. The procedure: Cells were seeded in 96-well plates and treated the day after seeding with a serial dilution of compounds in technical duplicates. After 7 days, viability was analyzed using the AlamarBlue reagent (BioRad). AlamarBlue was added in an amount equal to 10% of the volume in the well and after a 4–6 h incubation viability was determined by fluorescence analysis using a standard plate reader. Fluorescence was normalized to vehicle treated control for each cell line, and data were fitted in Genedata Screener to generate compound sensitivity curves and determine IC50 or EC50 (half maximal inhibitory/effective concentration) values as indicated.
A general note: The colour change of resazurin is a common sign of viable cells or microbes.

The subject of assay [1] is FEN1 chromatin enrichment in HeLa cells. Nature of the assay: Chromatin retention assay (immunofluorescence, CSK-extracted cells). The settings on record: 24 h treatment. Here is the method:
HeLa cells were seeded at a density of 4000 cells per well in 100 μl of media in collagen-coated 96-well plates (Revvity, #6055700). Sixteen to twenty-four hours after seeding, compounds were dispensed using the D300e digital dispenser (Tecan) to generate a multipoint dose–response curve, equalized to final DMSO concentration. After 24 h, cells were washed with phosphate buffered saline (PBS) and pre-extracted with 50 μl of ice-cold cytoskeletal (CSK) buffer [10 mM PIPES pH 6.8 (Sigma–Aldrich, P8203-50G), 100 mM NaCl (VWR, 27810.295), 300 mM sucrose (Sigma–Aldrich, S0389-500G), 1.5 mM MgCl2 (VWR, 8760.29), 5 mM EDTA (Sigma–Aldrich, E7889-100ML), 0.4% Triton […] (Sigma–Aldrich, T9285-500ML)], for 4 min on ice. Cells were then washed with PBS and fixed in 4% paraformaldehyde (PFA) (ChemCruz, sc-281692) for 10 min at room temperature.
For immunofluorescence staining, cells were washed with PBS then blocked and permeabilized with PBS containing 0.5% bovine serum albumin (BSA) and 0.5% Triton X-100 (blocking buffer) for 1 h at room temperature. Cells were then stained with the indicated markers (FEN1 or PARP1) by incubation with primary antibodies (Supplementary Table S5) diluted in blocking buffer, at room temperature for 4 h (FEN1) or overnight at 4°C (PARP1). […]

The test system of assay [2] is MMEJ (resection independent reporter). Briefly: Extrachromosomal MMEJ reporter assay, resection independent, HEK-293. The procedure:
MMEJ resection-independent and MMEJ resection-dependent reporter assays performed as previously described. In brief, HEK-293 cells were resuspended in supplemented SF nucleofection solution (Lonza) containing nanoluciferase DNA substrate and Firefly luciferase plasmid (Promega) at a ratio of 100 μl SF: 1500 ng nanoluciferase substrate: 1000 ng Firefly plasmid: ∼1.5 × 10^6 cells. Cells were electroporated and recovered into fresh media before seeding into a 96-well plate pre-dosed with compounds and DMSO control.
After 24 h, Firefly and NanoLuc levels were detected using the Nano-Glo® Dual-Luciferase® Reporter Assay system (Promega) as per the manufacturer’s instructions. NanoLuc luminescence (reporter) was normalized to Firefly luminescence (control) to determine substrate repair. Percentage repair was calculated relative to the DMSO control.
A general note: A reporter such as luciferase makes a cellular process visible.

In assay [3] the test system is DLD-1, DLD-1 BRCA2KO, SUM149PT, MDA-MB-436 cells. Nature of the assay: Cell cycle analysis by immunofluorescence (PCNA/DAPI). The procedure:
Cells were seeded at a density of 10 000 cells per well in 100 μl of media in collagen-coated 96-well plates (Revvity, #6055700). Twenty-four hours after seeding, cells were treated with the indicated doses of MSC2798778, MSC2798781, or DMSO (Apollo Scientific, BID1200) using a D300e digital dispenser (Tecan) for 24 h. Cells were washed with PBS and fixed in 4% PFA (ChemCruz, sc-281692) for 10 min at room temperature.
For immunofluorescence staining, cells were washed with PBS then blocked and permeabilized with PBS containing 0.5% BSA and 0.5% Triton X-100 (blocking buffer) for 45 min at room temperature. Cells were then stained with the indicated markers by incubation with primary antibodies (Supplementary Table S5) diluted in the blocking buffer, overnight at 4°C. […]
• Foci were quantified by setting up a contrast threshold higher than the background signal. • pKAP1 positive cells were selected using a mean intensity threshold. • Cell cycle analysis was performed by defining gates on a bivariate plot of DAPI total nuclear intensity and PCNA mean nuclear intensity. PCNA positive cells were scored as cells in S-phase. G1 and G2/M cells were scored as PCNA negative cells with differential DNA content. • PARylation and replication levels were quantified by measuring the mean nuclear fluorescence intensity, in PCNA positive cells, of poly/mono-ADP ribosylation and EdU, respectively.

SMILES strings stand for the structures. pEC50: −log10 of the molar value.

With `C[C@H](Oc1nn2c(c(O)c1=O)C(=O)N1CCOC[C@@H]1C2)c1ccc2ccc(Cl)cc2c1` [MSC778], the pEC50 (as a rule, the EC50 on a negative log10 scale, so that one unit is a factor of ten) was 6.66 in the assay on DLD-1 BRCA2KO cells (Homo sapiens, 168 h, DLD-1 BRCA2KO, 7 days, AlamarBlue, N = 3); 5.92 in assay [1] (Homo sapiens, unchallenged HeLa cells); 6.00 in assay [2] (Homo sapiens, HEK293, resection independent reporter, HEK-293, 24 h, read-out: MMEJ inhibition EC50). In the assay with DLD-1 BRCA2KO cells (more sensitive than isogenic DLD-1 wild-type), the “Sensitivity of DLD-1 BRCA2KO relative to parental DLD-1 cells” value is approximately 10 fold. The “MMEJ potency relative to ART558” value in assay [2] (lower potency than ART558, both reporters) is 10–20 fold. In addition, the Cell cycle effect result in assay [3] (24 h treatment, all four cell lines) is “titratable S-phase accumulation”.
Take `C[C@@H](Oc1nn2c(c(O)c1=O)C(=O)N1CCOC[C@@H]1C2)c1ccc2ccc(Cl)cc2c1` [MSC781]: the “Sensitivity of cell lines (viability)” value with DLD-1 BRCA2KO cells (DLD-1 and DLD-1 BRCA2KO, 7 days, AlamarBlue, compared with MSC778) is “much less sensitive”. Besides, the “Chromatin enrichment (of either FEN1 or PARP1) and DNA damage signalling” value in assay [1] (HeLa cells) is recorded as “not enhanced”. Further, the “Inhibited MMEJ” value in assay [2] (both reporters, HEK-293) is “not”. In addition, in assay [3] (3 µM, HRD panel and EWS panel (U-2 OS, RD-ES, MHH-ES-1)), the Cell cycle effect entry is on record as “not perturbed”.

The record behind these values is PMC12684391, “Mechanistic insights into the monotherapy and combination potential of FEN1 inhibition in cancer therapy” (Nucleic Acids Research, 2025).
